Reference: patent publication US20230381328A1, “COMPOUND FOR THE PREVENTION OR TREATMENT OF MYASTHENIA GRAVIS” (ABLEVIA BIOTECH GMBH, priority 2020, published 2023)

Tested on: myasthenogenic antibody mAB 198
Assay: Peptide microarray mimotope screen, binding of mAB 198 to linear and cyclic peptides (fluorescence readout)
Set-up: species or system rat
Conditions: binding of mAB 198, relative fluorescent signal after normalization against background
Text: A custom peptide array of 30000 peptides was synthesized, with peptides of 7-19 amino acids in size; the peptides were based on substitution analyses of 176 AChR-MIR peptides with exchanges of each amino acid positions by each of the 20 common amino acids. Peptides were synthesized directly on a microarray, and screened with monoclonal antibody mAB 198 in order to obtain mimotopes with a binding strength which was improved over the human AChR alpha chain MIR-containing sequence […] (Tzartos et al, 1991; Luo et al, 2009) and over a previously published mimotope sequence ([…]), that was derived from Torpedo AchR with the help of antibody mAB 132A (Trinh et al, 2014). In particular, the wild type AChR-MIR sequence is known to structurally mimic to a certain extent the epitope recognized by myasthenogenic, unwanted and disease-causing antibodies from patients. The mimotope peptide library was designed by permutation of each single amino acid position of these two sequences with all natural amino acids in order to provide a maximally diversified collection of peptide variants. All peptides were synthesized in doublets as linear and as cyclic peptides. The aim was to obtain peptides (mimotopes) that mimic the natural epitope of myasthenogenic antibodies.
For the mimotope screen, the antibody mAB 198 (Absolute Antibody Ltd, UK) was used. This is a prototype antibody that was generated in rats using human AChR (Tzartos et al, 1983; Asher et al, 1993). […] Therefore, mAB198 was used as a surrogate probe to screen for new mimotopes that are capable of mimicking the corresponding AChR-MIR epitope or portions of the epitope.
As a readout, binding of mAB 198 to the 30000 linear and cyclic peptides was measured by fluorescence readout, and peptides were ranked according to their relative fluorescent signal after normalization against the background.
The top-ranked 100 linear and cyclic mimotopes are listed in Table 1 and Table 2 above, respectively.

Row | Substance | relative signal [%] (linear mimotopes) | relative signal [%] (cyclic mimotopes)
1 | 84 (RGNPADY) [compound 84] | 6.9% | –
2 | 85 (VDCNLKFNP) [compound 85] | 6.8% | –
3 | 86 (DVRLRWNPSDY) [compound 86] | 6.8% | –
4 | 87 (RIRWNPADY) [compound 87] | 6.8% | –
5 | 88 (HRLRWNPAD) [compound 88] | 6.7% | –
6 | 89 (SLRVNPADY) [compound 89] | 6.7% | –
7 | 90 (CNLKYNP) [compound 90] | 6.7% | –
8 | 91 (HSLRWNPAD) [compound 91] | 6.6% | –
9 | 92 (NPADYGN) [compound 92] | 6.5% | –
10 | 93 (LRWNPADYPGI) [compound 93] | 6.5% | –
11 | 94 (RLRYNPADY) [compound 94] | 6.5% | –
12 | 95 (SLRFNPADY) [compound 95] | 6.5% | –
13 | 96 (QWVDCNLKFNP) [compound 96] | 6.4% | –
14 | 97 (LRPNPADYG) [compound 97] | 6.1% | –
15 | 98 (VDCNLKYNP) [compound 98] | 6.1% | –
16 | 99 (ALRWNPADY) [compound 99] | 6.0% | –
17 | 100 (NPADYGV) [compound 100] | 6.0% | –
18 | 101 (VRLRWNPADYP) [compound 101] | – | 100.0%
19 | 102 (RLRVNPADY) [compound 102] | – | 61.3%
20 | 103 (LRVNPADYG) [compound 103] | – | 45.1%
21 | 104 (WIDVRLRGNPA) [compound 104] | – | 43.2%
22 | 105 (RLNPADY) [compound 105] | – | 42.3%
23 | 106 (RFNPADY) [compound 106] | – | 37.5%
24 | 107 (RLRLNPADY) [compound 107] | – | 37.3%
25 | 108 (RLRGNPADY) [compound 108] | – | 32.7%

Row | Substance | relative signal [%] (linear mimotopes) | relative signal [%] (cyclic mimotopes)
26 | 109 (DVRLRINPADY) [compound 109] | – | 31.4%
27 | 110 (DVRLRVNPADY) [compound 110] | – | 30.2%
28 | 111 (RINPADY) [compound 111] | – | 28.9%
29 | 112 (LRLNPADYG) [compound 112] | – | 28.6%
30 | 113 (LRRNPAD) [compound 113] | – | 28.2%
31 | 114 (SLRINPADY) [compound 114] | – | 28.0%
32 | 115 (DVRLRFNPADY) [compound 115] | – | 27.7%
33 | 116 (NPADYRG) [compound 116] | – | 27.4%
34 | 117 (SLRVNPADY) [compound 117] | – | 26.5%
35 | 118 (RLRINPADY) [compound 118] | – | 25.5%
36 | 119 (GGSLRINPADY) [compound 119] | – | 25.4%
37 | 120 (DVRLRGNPADY) [compound 120] | – | 25.0%
38 | 121 (WNPADYR) [compound 121] | – | 24.9%
39 | 122 (RLRYNPADY) [compound 122] | – | 24.5%
40 | 123 (RGNPADY) [compound 123] | – | 23.8%
41 | 124 (RRNPADY) [compound 124] | – | 23.5%
42 | 125 (LRRNPADYG) [compound 125] | – | 23.4%
43 | 126 (RINPADYGG) [compound 126] | – | 23.1%
44 | 127 (LRINPADYG) [compound 127] | – | 22.8%
45 | 128 (GGSLRVNPADY) [compound 128] | – | 22.5%
46 | 129 (RGNPADYGG) [compound 129] | – | 22.2%
47 | 130 (SLRLNPADY) [compound 130] | – | 21.8%
48 | 131 (DVRLRPNPADY) [compound 131] | – | 21.3%
49 | 132 (RLRFNPADY) [compound 132] | – | 21.3%
50 | 133 (WNPADYP) [compound 133] | – | 21.1%

Row | Substance | relative signal [%] (linear mimotopes) | relative signal [%] (cyclic mimotopes)
51 | 134 (RYNPADY) [compound 134] | – | 20.2%
52 | 135 (GGSLRGNPADY) [compound 135] | – | 19.6%
53 | 136 (NPADYGR) [compound 136] | – | 19.5%
54 | 137 (RVNPADY) [compound 137] | – | 18.7%
55 | 138 (GSLRWNPADYR) [compound 138] | – | 16.2%
56 | 139 (NPADYGH) [compound 139] | – | 15.8%
57 | 140 (RPNPADY) [compound 140] | – | 15.6%
58 | 141 (SLRGNPADY) [compound 141] | – | 15.4%
59 | 142 (VRLRRNPAD) [compound 142] | – | 14.7%
60 | 143 (RTNPADY) [compound 143] | – | 14.6%
61 | 144 (GGSLRFNPADY) [compound 144] | – | 14.5%
62 | 145 (RLYWNPADY) [compound 145] | – | 13.7%
63 | 146 (GNPADYGGI) [compound 146] | – | 13.7%
64 | 147 (SLRFNPADY) [compound 147] | – | 13.6%
65 | 148 (VRLRVNPADYG) [compound 148] | – | 13.4%
66 | 149 (LRWNPADYP) [compound 149] | – | 13.1%
67 | 150 (NPADYGD) [compound 150] | – | 12.6%
68 | 151 (VNPADYG) [compound 151] | – | 12.5%
69 | 152 (GGGSLRRNPAD) [compound 152] | – | 12.5%
70 | 153 (RPRWNPADY) [compound 153] | – | 12.4%
71 | 154 (GSLRWNPADYP) [compound 154] | – | 12.4%
72 | 155 (SLRYNPADY) [compound 155] | – | 12.2%
73 | 156 (RANPADY) [compound 156] | – | 12.2%
74 | 157 (GSLRINPADYG) [compound 157] | – | 12.1%
75 | 158 (RPNPADYGG) [compound 158] | – | 11.9%

Row | Substance | relative signal [%] (linear mimotopes) | relative signal [%] (cyclic mimotopes)
76 | 159 (NPADYGY) [compound 159] | – | 11.8%
77 | 160 (ALRWNPADY) [compound 160] | – | 11.5%
78 | 161 (GGSLRYNPADY) [compound 161] | – | 11.5%
79 | 162 (RIRWNPADY) [compound 162] | – | 11.5%
80 | 163 (RWNPADR) [compound 163] | – | 11.0%
81 | 164 (RLHWNPADY) [compound 164] | – | 10.8%
82 | 165 (QLRWNPADY) [compound 165] | – | 10.7%
83 | 166 (RLRQNPADY) [compound 166] | – | 10.6%
84 | 167 (DVRLRWNPSDY) [compound 167] | – | 10.5%
85 | 168 (VRLRWNPADYS) [compound 168] | – | 10.5%
86 | 169 (DVRLRYNPADY) [compound 169] | – | 10.5%
87 | 170 (GSLRFNPADYG) [compound 170] | – | 10.4%
88 | 171 (GGSLRWNPADR) [compound 171] | – | 10.3%
89 | 172 (LRWNPADYR) [compound 172] | – | 10.3%
90 | 173 (LRWNPADYGGF) [compound 173] | – | 10.3%
91 | 174 (GSLRWNPADYD) [compound 174] | – | 10.2%
92 | 175 (RLRWNPADYHG) [compound 175] | – | 10.1%
93 | 176 (RLRWNPADYGP) [compound 176] | – | 10.0%
94 | 177 (GSLRWNPADYN) [compound 177] | – | 10.0%
95 | 178 (VRLRINPADYG) [compound 178] | – | 10.0%
96 | 179 (LRPNPADYG) [compound 179] | – | 10.0%
97 | 180 (TLRWNPADY) [compound 180] | – | 9.9%
